{
  "source": "patent US4542169A",
  "about": "“Biomedical devices containing isothiazolones to control bacteria growth” (Rohm and Haas Company, priority 1983, dated 1985)",
  "key": {"Escherichia coli": {"system": "Escherichia coli", "experiment": "Minimum inhibitory concentration, bacteriostatic activity", "format": "cell-based", "conditions": "Table III: Active Ingredient MIC"}, "Pseudomonas aeruginosa": {"system": "Pseudomonas aeruginosa", "experiment": "Minimum inhibitory concentration, bacteriostatic activity", "format": "cell-based", "conditions": "Table III: Active Ingredient MIC"}, "Staphylococcus aureus": {"system": "Staphylococcus aureus", "experiment": "Minimum inhibitory concentration, bacteriostatic activity", "format": "cell-based", "conditions": "Table III: Active Ingredient MIC"}, "Candida albicans (yeast)": {"system": "Candida albicans (yeast)", "experiment": "Minimum inhibitory concentration, fungistatic activity", "format": "cell-based", "conditions": "Table III: Active Ingredient MIC"}, "Aspergillus niger": {"system": "Aspergillus niger", "experiment": "Minimum inhibitory concentration, fungistatic activity", "format": "cell-based", "conditions": "Table III: Active Ingredient MIC"}, "Aureobasidium pullulans": {"system": "Aureobasidium pullulans", "experiment": "Minimum inhibitory concentration, fungistatic activity", "format": "cell-based", "conditions": "Table III: Active Ingredient MIC"}, "Solubility in H2O": {"experiment": "Solubility in H2O", "format": "physicochemical", "conditions": "water"}, "Echerichia coli (E.c.)": {"system": "Echerichia coli (E.c.)", "experiment": "Zone of inhibition, polyvinyl chloride film discs on inoculated agar", "format": "cell-based", "conditions": "PVC film", "procedure": "(§1) In a two-liter, three-necked, round-bottom, flask equipped with a mechanical stirrer was placed 100 g of polyvinyl chloride, 590 g of reagent grade tetrahydrofuran, and 40.0 g of dioctylphthalate. This was stirred with gentle heating (35°-40° C.) for two hours to completely dissolve the polyvinyl chloride. Then, a barium/calcium salt of a fatty acid (3.5 g), a phosphite chelating agent (1.5 g), stearic Acid (0.25 g) and epoxidized soy bean oil (7.5 g), were mixed with 21 g of tetrahydrofuran and added to the polyvinyl chloride solution. After stirring at room temperature for 30 minutes, the solution was ready for use.\n(§2) Films containing the isothiazolones were cast by first preparing a 0.5 weight percent polyvinyl chloride solution by adding the isothiazolone to the polyvinyl chloride solution. Then, portions of the 0.5% solution were diluted to 0.1 and 0.05%. The films were drawn down on 12\"×12\" glass plates using a 50 mil-3\" wide coating bar and the films were allowed to air dry for 48 hours.\n(§3) The films were cut into 1.25 cm discs and placed in agar plates inoculated with Staphlococcus aureus (S.a) or Echerichia coli (E.c.)."}, "[1]": {"system": "Staphlococcus aureus (S.a)", "experiment": "Zone of inhibition, polyvinyl chloride film discs on inoculated agar", "format": "cell-based", "conditions": "PVC film", "procedure": "as §1, §2, §3"}, "S.a.": {"system": "S.a.", "experiment": "Zone of inhibition, silicone rubber film discs on inoculated agar", "format": "cell-based, Staphlococcus aureus", "conditions": "for Zones: Silicone; for Zones / Zone of Inhibition: S.a.; for Zone of Inhibition: silicone rubber film", "excerpt": "as §3\n(§4) The films were cut into discs and tested as in example one against S.a. and E.c."}, "E.c.": {"system": "E.c.", "experiment": "Zone of inhibition, silicone rubber film discs on inoculated agar", "format": "cell-based, Echerichia coli", "conditions": "for Zones: Silicone; for Zone of Inhibition: silicone rubber film", "excerpt": "as §3, §4"}, "[2]": {"system": "Pseudomonas aeruginosa (P.a.)", "experiment": "Zone of inhibition, polyvinyl chloride (vinyl) film discs", "format": "cell-based", "conditions": "vinyl film", "procedure": "as §1, §3\nDiscs were tested against Pseudomonas aeruginosa (P.a.). The 1.0% films gave a slight zone of inhibition while the 5.0% film gave a 1 mm zone of inhibition."}, "Aspergillis niger (A.n.) [3]": {"system": "Aspergillis niger (A.n.)", "experiment": "Zone of inhibition, polyvinyl chloride film", "format": "cell-based", "conditions": "PVC film"}, "[4]": {"system": "Aerobasidium pullulans (A.p)", "experiment": "Zone of inhibition, polyvinyl chloride film", "format": "cell-based", "conditions": "PVC film"}, "[5]": {"system": "Aerobasidium pullulans (A.p)", "experiment": "Growth of fungus on polyvinyl chloride film", "format": "cell-based", "design": "key: 0: zero (no growth); 5: five (heavy growth)", "conditions": "PVC film", "procedure": "as §1, §2\n(§5) In addition to zones of inhibition, the films were observed by growth of fungus on the film and rated from zero (no growth) to five (heavy growth)."}, "Aspergillis niger (A.n.) [6]": {"system": "Aspergillis niger (A.n.)", "experiment": "Growth of fungus on polyvinyl chloride film", "format": "cell-based", "design": "key: 0: zero (no growth); 5: five (heavy growth)", "conditions": "PVC film", "procedure": "as §1, §2, §5"}, "P.a.": {"system": "P.a.", "experiment": "Zone of inhibition, silicone film", "format": "cell-based, Pseudomonas aeruginosa"}, "[7]": {"system": "sessile colonization by bacteria or fungi", "experiment": "Implanted silicone rubber urinary catheters in dogs, growth after one week", "format": "in vivo", "conditions": "silicone catheter; for Agar culture / Visual Examination: one week", "excerpt": "These are inserted into large male dogs held in restraining harnesses. The catheters are examined for visible growth and cultured onto agar over a period of one week."}, "sessile colonization": {"system": "sessile colonization", "experiment": "Implanted polyvinyl chloride coated pacemakers in dogs, growth after one month", "format": "in vivo", "conditions": "for Agar culture / Visual Observation: PVC-coated pacemaker, one month", "excerpt": "The devices are inserted into dogs and allowed to remain without electrical activation for a period of one month. The devices are then removed and examined visually and by agar cultures from the surface."}, "fungi": {"system": "fungi", "experiment": "Observation of incubated plates (antibiotics vs Compound 1): fungal overgrowth", "format": "cell-based", "conditions": "as the plates were allowed to incubate"}, "[8]": {"system": "resistant bacterial colonies", "conditions": "with time"}},
  "data": [
    {"smiles": "O=c1c(Cl)c(Cl)sn1C1CCCCC1", "note": "[Compound 1, 4,5-Dichloro-N--cyclohexyl-isothiazolin-3-one]", "values": [
      {"measurement": "MIC", "setting": "Escherichia coli", "result": 16, "unit": "µg/mL"},
      {"measurement": "MIC", "setting": "Pseudomonas aeruginosa", "result": 62, "unit": "µg/mL"},
      {"measurement": "MIC", "setting": "Staphylococcus aureus", "result": 10, "unit": "µg/mL"},
      {"measurement": "MIC", "setting": "Candida albicans (yeast)", "result": 0.5, "unit": "µg/mL"},
      {"measurement": "MIC", "setting": "Aspergillus niger", "result": 0.5, "unit": "µg/mL"},
      {"measurement": "MIC", "setting": "Aureobasidium pullulans", "result": 0.5, "unit": "µg/mL"},
      {"measurement": "solubility", "setting": "Solubility in H2O", "result": 91, "unit": "µg/mL"},
      {"measurement": "Zone of Inhibition", "setting": "Echerichia coli (E.c.); 0.05%", "result": 0.8, "unit": "mm"},
      {"measurement": "Zone of Inhibition", "setting": "Echerichia coli (E.c.); 0.1%", "result": 1.8, "unit": "mm"},
      {"measurement": "Zone of Inhibition", "setting": "Echerichia coli (E.c.); 0.5%", "result": 4.8, "unit": "mm"},
      {"measurement": "Zone of Inhibition", "setting": "[1]; 0.05%", "result": 1.8, "unit": "mm"},
      {"measurement": "Zone of Inhibition", "setting": "[1]; 0.1%", "result": 4.3, "unit": "mm"},
      {"measurement": "bacteriocide activity compared with the best commercial antibiotics", "setting": "S.a.; PVC and silicone films, Table E", "result": "essential equivalency"},
      {"measurement": "Zones", "setting": "S.a.; 1.0%", "result": 20.3, "unit": "mm"},
      {"measurement": "Zones", "setting": "S.a.; 5.0%", "result": 20.3, "unit": "mm"},
      {"measurement": "Zones", "setting": "S.a.; .20%", "result": 17.8, "unit": "mm"},
      {"measurement": "Zone of Inhibition", "setting": "S.a.; Conc. 10", "result": 0.8, "unit": "mm"},
      {"measurement": "Zone of Inhibition", "setting": "S.a.; Conc. 100", "result": 6.8, "unit": "mm"},
      {"measurement": "Zone of Inhibition", "setting": "S.a.; Conc. 1000", "result": 16.3, "unit": "mm"},
      {"measurement": "Zones", "setting": "E.c.; 1.0%", "result": 16.3, "unit": "mm"},
      {"measurement": "Zones", "setting": "E.c.; 5.0%", "result": 16.3, "unit": "mm"},
      {"measurement": "Zones", "setting": "E.c.; .20%", "result": 14.3, "unit": "mm"},
      {"measurement": "Zone of Inhibition", "setting": "E.c.; Conc. 10", "result": 0.1, "unit": "mm"},
      {"measurement": "Zone of Inhibition", "setting": "E.c.; Conc. 100", "result": 5.5, "unit": "mm"},
      {"measurement": "Zone of Inhibition", "setting": "E.c.; Conc. 1000", "result": 13.0, "unit": "mm"},
      {"measurement": "Zone of Inhibition", "setting": "[2]; 1.0% by weight", "result": "slight"},
      {"measurement": "Zone of Inhibition", "setting": "[2]; 5.0% by weight", "result": 1, "unit": "mm"},
      {"measurement": "Zone of Inhibition", "setting": "Aspergillis niger (A.n.) [3]; 0.05%", "result": 0, "unit": "mm"},
      {"measurement": "Zone of Inhibition", "setting": "Aspergillis niger (A.n.) [3]; 0.1%", "result": 0, "unit": "mm"},
      {"measurement": "Zone of Inhibition", "setting": "Aspergillis niger (A.n.) [3]; 0.5%", "result": 5.3, "unit": "mm"},
      {"measurement": "Zone of Inhibition", "setting": "[4]; 0.05%", "result": 0, "unit": "mm"},
      {"measurement": "Zone of Inhibition", "setting": "[4]; 0.1%", "result": 0, "unit": "mm"},
      {"measurement": "Zone of Inhibition", "setting": "[4]; 0.5%", "result": 5.3, "unit": "mm"},
      {"measurement": "Growth on Film", "setting": "[5]; 0.05%", "result": 0},
      {"measurement": "Growth on Film", "setting": "[5]; 0.1%", "result": 0},
      {"measurement": "Growth on Film", "setting": "[5]; 0.5%", "result": 0},
      {"measurement": "Growth on Film", "setting": "Aspergillis niger (A.n.) [6]; 0.05%", "result": 1},
      {"measurement": "Growth on Film", "setting": "Aspergillis niger (A.n.) [6]; 0.1%", "result": 0},
      {"measurement": "Growth on Film", "setting": "Aspergillis niger (A.n.) [6]; 0.5%", "result": 0},
      {"measurement": "Zones", "setting": "P.a.; 1.0%", "result": 3.3, "unit": "mm"},
      {"measurement": "Zones", "setting": "P.a.; 5.0%", "result": 3.3, "unit": "mm"},
      {"measurement": "Zones", "setting": "P.a.; .20%", "result": 0.8, "unit": "mm"},
      {"measurement": "efficacy in resisting sessile colonization", "setting": "[7]", "result": "resisting sessile colonization by bacteria or fungi"},
      {"measurement": "Agar culture", "setting": "[7]; 0.05% by weight", "result": "+2"},
      {"measurement": "Visual Examination", "setting": "[7]; 0.05% by weight", "result": "slight slime"},
      {"measurement": "Agar culture", "setting": "[7]; 0.1% by weight", "result": "+1"},
      {"measurement": "Visual Examination", "setting": "[7]; 0.1% by weight", "result": "clean"},
      {"measurement": "Agar culture", "setting": "[7]; 0.5% by weight", "result": 0},
      {"measurement": "Visual Examination", "setting": "[7]; 0.5% by weight", "result": "clean"},
      {"measurement": "Agar culture", "setting": "[7]; 1.0% by weight", "result": 0},
      {"measurement": "Visual Examination", "setting": "[7]; 1.0% by weight", "result": "clean"},
      {"measurement": "Agar culture", "setting": "sessile colonization; 0.05%", "result": "+3"},
      {"measurement": "Visual Observation", "setting": "sessile colonization; 0.05%", "result": "slime covered"},
      {"measurement": "Agar culture", "setting": "sessile colonization; 0.1%", "result": "+1"},
      {"measurement": "Visual Observation", "setting": "sessile colonization; 0.1%", "result": "slight slime layer"},
      {"measurement": "Agar culture", "setting": "sessile colonization; 0.5%", "result": "trace"},
      {"measurement": "Visual Observation", "setting": "sessile colonization; 0.5%", "result": "clean"},
      {"measurement": "Agar culture", "setting": "sessile colonization; 1.0%", "result": 0},
      {"measurement": "Visual Observation", "setting": "sessile colonization; 1.0%", "result": "clean"},
      {"measurement": "efficacy in resisting sessile colonization", "setting": "sessile colonization; treated polyvinyl chloride, compared to untreated control", "result": "resisting sessile colonization, particularly as compared to untreated control"},
      {"measurement": "overgrowth of plates by fungi", "setting": "fungi", "result": "clean"},
      {"measurement": "resistant bacterial colonies on plates", "setting": "[8]", "result": "ability to suppress all species and not permit the growth of antibiotic resistant species"}
    ]}
  ]
}
